Among the test systems are MOLT-4 leukemia; EKVX NSCLC; OVCAR-5 ovarian; SNB-75 CNS; HT29 colon; RPMI-8226 leukemia; SK-MEL-28 melanoma; MDA-MB-435; T-47D breast.
What all share (test): NCI tumour cell line growth inhibition, 48 h

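Grown in 96-well plates, cells were treated for 48 hours with each compound at five concentrations. Insufficient inhibition: endpoint recorded as highest concentration tested. At the GI50, growth is halved. TGI is the concentration that stops growth completely.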 Some results are limits rather than exact numbers.

As to `CC(C)(C)C[P+](C)(C)c1ccccc1`, the TGI in the experiment on MOLT-4 leukemia, with EKVX NSCLC, in the experiment with OVCAR-5 ovarian, in the experiment on SNB-75 CNS, in the experiment with HT29 colon and with RPMI-8226 leukemia was more than 100 µM throughout. For the same molecule, the TGI in the experiment with SK-MEL-28 melanoma is more than 100 µM.

Consider `CCc1oc2ccc(OC)c3c2c1C=CC=C3`, for which the TGI in the experiment on MOLT-4 leukemia, with EKVX NSCLC, in the experiment on OVCAR-5 ovarian, with SNB-75 CNS, with HT29 colon and in the experiment with RPMI-8226 leukemia was more than 100 µM each time. In addition, in the experiment on SK-MEL-28 melanoma, the TGI is more than 100 µM.

For the molecule `CC(C)[O-].CC(C)[O-].[O-]c1cccc2cccnc12.[O-]c1cccc2cccnc12.[Ti+4]`, the GI50 in the experiment with EKVX NSCLC was more than 100 µM; with OVCAR-5 ovarian it was 51.1 µM; in the experiment with SNB-75 CNS it was more than 100 µM; in the experiment on SK-MEL-28 melanoma, 56.5 µM. Also, the TGI in the experiment with EKVX NSCLC, in the experiment with OVCAR-5 ovarian, in the experiment on SNB-75 CNS and with SK-MEL-28 melanoma was more than 100 µM throughout.

Take `CP(C)C.[Ag][I]`: the TGI was more than 100 µM in the experiment with MOLT-4 leukemia; more than 100 µM in the experiment on EKVX NSCLC; more than 100 µM with OVCAR-5 ovarian; 46.5 µM in the experiment on SNB-75 CNS; more than 100 µM in the experiment with HT29 colon; more than 100 µM in the experiment on RPMI-8226 leukemia. The molecule further came in with a TGI with SK-MEL-28 melanoma of more than 100 µM.

Regarding `CCOC(=O)CNC(=O)C(CSC(=O)N(C)O)NC(=O)CCC(N)C(=O)O` (configuration not stated), the GI50 with MOLT-4 leukemia, with EKVX NSCLC, in the experiment on SNB-75 CNS, with HT29 colon, in the experiment with RPMI-8226 leukemia and with SK-MEL-28 melanoma was more than 2000 µM each time. Also, the TGI in the experiment on MOLT-4 leukemia, in the experiment on EKVX NSCLC, in the experiment with SNB-75 CNS, in the experiment on RPMI-8226 leukemia and with SK-MEL-28 melanoma was more than 2000 µM each time.

Regarding `N#C/C(=C\c1ccc(O)cc1O)C(N)=O`, the TGI was more than 100 µM with MOLT-4 leukemia; more than 100 µM in the experiment on EKVX NSCLC; more than 100 µM in the experiment with OVCAR-5 ovarian; 67.4 µM with SNB-75 CNS; 98.2 µM in the experiment on HT29 colon; more than 100 µM in the experiment with RPMI-8226 leukemia. The TGI with SK-MEL-28 melanoma was more than 100 µM.

For the molecule `CCOC(=O)C(Cc1ccc(OC)cc1)C(=O)OCC`, the GI50 in the experiment with MDA-MB-435 is 3.97 µM; in the experiment on MOLT-4 leukemia it was 3.2 µM; in the experiment with T-47D breast, 2.8 µM; in the experiment on EKVX NSCLC, 5.84 µM; with OVCAR-5 ovarian, 11.4 µM; in the experiment on SNB-75 CNS, 2.72 µM. For the same molecule, the GI50 with HT29 colon is 4.15 µM; with RPMI-8226 leukemia it was 3.05 µM. Further, the TGI in the experiment on MDA-MB-435 amounted to 18 µM; with MOLT-4 leukemia, 11 µM; in the experiment with T-47D breast, 12.4 µM; with EKVX NSCLC, 23.7 µM; with OVCAR-5 ovarian it was 24.2 µM; in the experiment with SNB-75 CNS it was 9.35 µM. The TGI in the experiment with HT29 colon worked out at 25.4 µM; in the experiment on RPMI-8226 leukemia it was 14.3 µM.

Take `CCC[CH2][Sn]1([CH2]CCC)[O]C(=O)c2cc(C)ccc2[O]1`: the GI50 with MOLT-4 leukemia was 0.301 µM; with EKVX NSCLC it was 0.579 µM; in the experiment with OVCAR-5 ovarian, 1.66 µM; in the experiment with SNB-75 CNS, 0.291 µM; in the experiment with HT29 colon, 1.24 µM; in the experiment on RPMI-8226 leukemia, 0.193 µM. The GI50 in the experiment on SK-MEL-28 melanoma is 0.682 µM. In addition, the TGI with MOLT-4 leukemia was found to be 1.09 µM; with EKVX NSCLC it was 1.94 µM; in the experiment with OVCAR-5 ovarian, 3.04 µM; in the experiment on SNB-75 CNS it was 1.2 µM; with HT29 colon it was 2.56 µM; in the experiment with RPMI-8226 leukemia, 0.599 µM. Also, in the experiment with SK-MEL-28 melanoma, the TGI was 2.03 µM.

In the case of `CO[C@@]12CC(=O)/C(=C(O)\C=C\c3ccccc3)C(=O)[C@]1(OC)Cc1ccccc1O2`, the TGI was 96 µM with MOLT-4 leukemia; more than 100 µM with EKVX NSCLC; 82.8 µM in the experiment on OVCAR-5 ovarian; more than 100 µM with SNB-75 CNS; more than 100 µM in the experiment on HT29 colon; 59.8 µM with SK-MEL-28 melanoma.

Regarding `Nn1c(N=Nc2c(O)[nH]c3ccccc23)n[nH]c1=S`, the TGI in the experiment on MOLT-4 leukemia, in the experiment with EKVX NSCLC, with OVCAR-5 ovarian, in the experiment on HT29 colon, in the experiment with RPMI-8226 leukemia and in the experiment on SK-MEL-28 melanoma was more than 100 µM throughout.

On to `CC12OC3CC(O1)C1(C=O)C4CCC5(C)C(c6ccc(=O)oc6)CCC5(O)C4CCC1(C3)O2` (configuration not stated), for which the TGI is 0.244 µM in the experiment with MOLT-4 leukemia; 1.19 µM with OVCAR-5 ovarian; 1.03 µM in the experiment with SNB-75 CNS; 1.3 µM in the experiment on HT29 colon; 0.304 µM with RPMI-8226 leukemia; 1.49 µM in the experiment on SK-MEL-28 melanoma.

With `N#CC12Cc3ccc4c(c3-c3cccc(c31)CCN2C(=O)c1ccccc1)OCO4` (configuration not stated), the TGI in the experiment with MOLT-4 leukemia, in the experiment with EKVX NSCLC, with OVCAR-5 ovarian, with SNB-75 CNS, with HT29 colon and in the experiment on RPMI-8226 leukemia was more than 100 µM throughout. In the experiment with SK-MEL-28 melanoma, this molecule registered a TGI of more than 100 µM.

Take `CC1=NN(c2ccccc2)C(=O)C1N=Nc1ccc(Br)c(C)c1` (configuration not stated): the TGI in the experiment with MOLT-4 leukemia, with EKVX NSCLC, in the experiment on OVCAR-5 ovarian, in the experiment on SNB-75 CNS, in the experiment with HT29 colon and in the experiment with RPMI-8226 leukemia was more than 100 µM throughout. This molecule returned a TGI with SK-MEL-28 melanoma of more than 100 µM.

With `C[C@]12CCCC(=O)C1C[C@H](C(=O)O)CC2` (some centres not stated), the TGI in the experiment with MOLT-4 leukemia, with OVCAR-5 ovarian, in the experiment with SNB-75 CNS, with HT29 colon, with RPMI-8226 leukemia and in the experiment with SK-MEL-28 melanoma was more than 100 µM in each case.

Take `NNC(=S)N/N=C/C(Cl)=C(\Cl)C(=O)O`: the TGI with MOLT-4 leukemia, in the experiment with EKVX NSCLC, with OVCAR-5 ovarian, with SNB-75 CNS, in the experiment on HT29 colon and with RPMI-8226 leukemia was more than 100 µM each time. This molecule had a TGI with SK-MEL-28 melanoma of more than 100 µM.

These data come from PubChem BioAssay (NCI).
